Reference: ChEMBL document CHEMBL6120977, “Structure-Affinity-Pharmacokinetics Relationships of Novel 18F-Labeled 1,4-Diazepane Derivatives for Orexin 1 Receptor Imaging” (J Med Chem, 2024)

What was measured:
Homo sapiens [1] = species: Homo sapiens; assay: Selectivity ratio of IC50 for recombinant human OX2R expressed in CHO-S cells to IC50 for recombinant human OX1R expressed in CHO-S cells; assay type: cell-based; conditions: tested as the 11C-labelled form
[2] = molecular target: T1, Orexin/Hypocretin receptor type 1 (Homo sapiens, UniProt O43613); assay: Displacement of [3H]SB-674042 from recombinant human OX1R extracted from HEK293T membrane by radioligand binding assay; assay type: cell membranes
T1 sequence (O43613 whole entry): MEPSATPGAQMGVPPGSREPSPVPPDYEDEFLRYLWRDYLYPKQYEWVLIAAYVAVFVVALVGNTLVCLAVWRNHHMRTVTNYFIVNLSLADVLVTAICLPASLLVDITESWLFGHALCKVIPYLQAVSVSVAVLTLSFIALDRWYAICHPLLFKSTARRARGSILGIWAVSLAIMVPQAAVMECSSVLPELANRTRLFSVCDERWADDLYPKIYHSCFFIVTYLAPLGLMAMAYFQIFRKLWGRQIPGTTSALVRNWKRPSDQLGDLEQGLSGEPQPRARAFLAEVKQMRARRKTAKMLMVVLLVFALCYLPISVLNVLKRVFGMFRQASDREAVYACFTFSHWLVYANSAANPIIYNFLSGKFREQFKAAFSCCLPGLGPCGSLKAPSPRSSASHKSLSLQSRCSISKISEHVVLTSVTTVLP

Orexin receptor type 2 = molecular target: T2, Orexin receptor type 2 (Homo sapiens, UniProt O43614); assay: Displacement of [3H]EMPA from recombinant human OX2R extracted from HEK293T membrane by radioligand binding assay; assay type: cell membranes
T2 sequence (O43614 whole entry): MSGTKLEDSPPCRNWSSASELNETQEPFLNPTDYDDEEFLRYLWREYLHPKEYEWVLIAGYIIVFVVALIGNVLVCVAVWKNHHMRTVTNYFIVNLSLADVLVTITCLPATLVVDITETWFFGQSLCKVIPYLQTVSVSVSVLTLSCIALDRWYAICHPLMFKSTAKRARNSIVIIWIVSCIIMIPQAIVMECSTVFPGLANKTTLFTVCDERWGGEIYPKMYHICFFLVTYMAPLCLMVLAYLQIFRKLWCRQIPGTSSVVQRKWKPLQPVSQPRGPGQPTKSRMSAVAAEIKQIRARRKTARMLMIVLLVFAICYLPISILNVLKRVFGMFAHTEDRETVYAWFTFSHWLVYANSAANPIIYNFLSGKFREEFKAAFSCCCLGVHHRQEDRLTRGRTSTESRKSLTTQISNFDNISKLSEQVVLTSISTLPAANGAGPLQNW

Homo sapiens [3] = species: Homo sapiens; assay: Selectivity ratio of IC50 for recombinant human OX2R extracted from HEK293T cell membrane to IC50 for recombinant human OX1R extracted from HEK293T cell membrane

| IC50 [2] [nM] | IC50 (Orexin receptor type 2) [nM] | Ratio IC50 (Homo sapiens [3]) | Structure (SMILES) | Ratio IC50 (Homo sapiens [1]) |
| --- | --- | --- | --- | --- |
| – | – | – | COc1ccnc(N2CCC3(CCN(Cc4cn(C)c5ccccc45)C(=O)C3)CC2)n1 | 5.6 |
| 0.72 | 54 | 75 | CC[C@H](C)[C@H]1CN(c2nc3cc(Cl)ccc3o2)CCCN1C(=O)c1cc(C)ccc1-n1nccn1 | – |
